Reference: ChEMBL document CHEMBL1201862, “PubChem BioAssay data set” (2004)
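How tested: cells in 96-well plates exposed to compound for 48 hours at five concentrations. Abbreviation: GI50, concentration required for 50% inhibition of growth.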 Calls of active or inactive are those of the source. Cut-off read from the data, not from the text of the source: active = GI50 up to about 1.1 µM and inactive = higher.

How the values were obtained:
Test in all cases: NCI tumour cell line growth inhibition, 48 h
[1] = system: NCI-H460
[2] = system: OVCAR-8
[3] = system: UO-31
[4] = system: SK-MEL-28
[5] = system: UACC-257
[6] = system: NCI-H226
[7] = system: KM12
[8] = system: K562
[9] = system: M19-MEL
[10] = system: EKVX
[11] = system: HT-29
[12] = system: HCC 2998
[13] = system: RXF 393
[14] = system: HOP-92
[15] = system: M14
[16] = system: LXFL 529
[17] = system: DMS-273
[18] = system: CAKI-1
[19] = system: SF-268
[20] = system: A549
[21] = system: OVCAR-4
[22] = system: HL-60
[23] = system: HCT-116
[24] = system: MOLT-4
[25] = system: SNB-19
[26] = system: SF-295
[27] = system: UACC-62
[28] = system: SR
[29] = system: Malme-3M
[30] = system: COLO 205
[31] = system: SNB-75
[32] = system: HCT-15
[33] = system: RPMI-8226
[34] = system: SF-539
[35] = system: U-251
[36] = system: SN12C
[37] = system: SW-620
[38] = system: LOX IMVI
[39] = system: TK-10
[40] = system: NCI-H522
[41] = system: SNB-78
[42] = system: DLD-1
[43] = system: DMS-114
[44] = system: CCRF-CEM
[45] = system: IGROV-1
[46] = system: SK-MEL-5
[47] = system: HOP-62
[48] = system: HOP-18
[49] = system: OVCAR-5
[50] = system: SK-MEL-2
[51] = system: NCI-H23
[52] = system: 786-0
[53] = system: ACHN
[54] = system: SK-OV-3
[55] = system: OVCAR-3
[56] = system: A498
[57] = system: KM-20L2

N=C1OC(c2ccc3c(c2)OCO3)C(NNS(=O)(=O)c2ccccc2)=C1O (stereo not drawn)
GI50 [1]: > 100 µM (inactive)
GI50 [2]: > 100 µM (inactive)
GI50 [3]: > 100 µM (inactive)
GI50 [4]: > 100 µM (inactive)
GI50 [5]: > 100 µM (inactive)
GI50 [6]: > 100 µM (inactive)
GI50 [7]: > 100 µM (inactive)
GI50 [8]: > 100 µM (inactive)
GI50 [9]: 30.4 µM (inactive)
GI50 [10]: > 100 µM (inactive)
GI50 [11]: > 100 µM (inactive)
GI50 [12]: > 100 µM (inactive)
GI50 [13]: > 100 µM (inactive)
GI50 [14]: > 100 µM (inactive)
GI50 [15]: 46.6 µM (inactive)
GI50 [16]: 58.2 µM (inactive)
GI50 [17]: > 100 µM (inactive)
GI50 [18]: > 100 µM (inactive)
GI50 [19]: > 100 µM (inactive)
GI50 [20]: > 100 µM (inactive)
GI50 [21]: > 100 µM (inactive)
GI50 [22]: > 100 µM (inactive)
GI50 [23]: > 100 µM (inactive)
GI50 [24]: > 100 µM (inactive)
GI50 [25]: > 100 µM (inactive)
GI50 [26]: > 100 µM (inactive)
GI50 [27]: > 100 µM (inactive)
GI50 [28]: 61.2 µM (inactive)
GI50 [29]: > 100 µM (inactive)
GI50 [30]: > 100 µM (inactive)
GI50 [31]: > 100 µM (inactive)
GI50 [32]: > 100 µM
GI50 [33]: 87.1 µM (inactive)
GI50 [34]: > 100 µM (inactive)
GI50 [35]: 54.7 µM (inactive)
GI50 [36]: > 100 µM (inactive)
GI50 [37]: > 100 µM (inactive)
GI50 [38]: > 100 µM (inactive)
GI50 [39]: > 100 µM (inactive)
GI50 [40]: 48.5 µM (inactive)
GI50 [41]: > 100 µM (inactive)
GI50 [42]: > 100 µM (inactive)
GI50 [43]: > 100 µM (inactive)
GI50 [44]: 44.6 µM (inactive)
GI50 [45]: > 100 µM (inactive)
GI50 [46]: 38.1 µM (inactive)
GI50 [47]: > 100 µM (inactive)
GI50 [48]: > 100 µM (inactive)
GI50 [49]: > 100 µM (inactive)
GI50 [50]: 68.2 µM (inactive)
GI50 [51]: 52.5 µM (inactive)
GI50 [52]: > 100 µM (inactive)
GI50 [53]: > 100 µM (inactive)
GI50 [54]: > 100 µM (inactive)
GI50 [55]: > 100 µM (inactive)
GI50 [56]: > 100 µM (inactive)
GI50 [57]: > 100 µM (inactive)

O=C(CCN1CCN(c2ccccc2)CC1)N1CCc2c([nH]c3ccccc23)C1c1cccnc1 (stereo not drawn)
GI50 [1]: 16.6 µM (inactive)
GI50 [2]: 16.6 µM (inactive)
GI50 [3]: 11.5 µM (inactive)
GI50 [4]: 15.7 µM (inactive)
GI50 [5]: 15.9 µM (inactive)
GI50 [6]: 25.9 µM (inactive)
GI50 [7]: 18 µM (inactive)
GI50 [8]: 15.9 µM (inactive)
GI50 [9]: 19.9 µM (inactive)
GI50 [10]: 16.9 µM (inactive)
GI50 [11]: 15 µM (inactive)
GI50 [12]: 21.7 µM (inactive)
GI50 [13]: 24.6 µM (inactive)
GI50 [14]: 18.5 µM (inactive)
GI50 [15]: 15.8 µM (inactive)
GI50 [16]: 16.3 µM (inactive)
GI50 [17]: 17.5 µM (inactive)
GI50 [18]: 18.1 µM (inactive)
GI50 [20]: 14.8 µM (inactive)
GI50 [21]: 13.6 µM (inactive)
GI50 [22]: 14.3 µM (inactive)
GI50 [23]: 14.9 µM (inactive)
GI50 [24]: 12 µM (inactive)
GI50 [25]: 23.3 µM (inactive)
GI50 [26]: > 10 µM (inactive)
GI50 [27]: > 10 µM (inactive)
GI50 [28]: 24.7 µM (inactive)
GI50 [29]: 19.1 µM (inactive)
GI50 [30]: 13.5 µM (inactive)
GI50 [31]: 28.8 µM (inactive)
GI50 [32]: 15.2 µM
GI50 [33]: > 10 µM (inactive)
GI50 [34]: 18.7 µM (inactive)
GI50 [35]: 16.4 µM (inactive)
GI50 [36]: 15.2 µM (inactive)
GI50 [37]: 17.2 µM (inactive)
GI50 [38]: 16.1 µM (inactive)
GI50 [39]: 5.81 µM (inactive)
GI50 [40]: 15.4 µM (inactive)
GI50 [41]: 16.1 µM (inactive)
GI50 [42]: 18.4 µM (inactive)
GI50 [43]: 13.2 µM (inactive)
GI50 [44]: 20.6 µM (inactive)
GI50 [45]: 39.7 µM (inactive)
GI50 [46]: 14.4 µM (inactive)
GI50 [47]: 20.8 µM (inactive)
GI50 [48]: 18.5 µM (inactive)
GI50 [49]: 16.9 µM (inactive)
GI50 [50]: 16.3 µM (inactive)
GI50 [51]: 21 µM (inactive)
GI50 [52]: 15.4 µM (inactive)
GI50 [53]: 20 µM (inactive)
GI50 [54]: 18.1 µM (inactive)
GI50 [55]: 16.7 µM (inactive)
GI50 [56]: 19.1 µM (inactive)
GI50 [57]: 15.9 µM (inactive)
